From patent publication US20180235914A1, “PR[…] PHA[…] OF […] A & B AGONISTS AGAINST NEURODEGENERATIVE AND NEURODEVELOPMENTAL DISEASES” (priority 2017, published 2018)

Assays:
[1] = tested on: PTZ induced behavioral effects in mice; experiment: Antagonism of Pentylenetetrazole (PTZ) induced behavioral effects in mice; assay type: in vivo; details: compounds 50 to 200 mg/kg (ip), PTZ 10 to 70 mg/kg (ip)
Procedure: In good agreement with the above pharmacological properties, GS, GP, GL and PG, at doses of 50 to 200 mg/kg, intraperitoneal (ip), in mice antagonized all the behavioral effects (in mice) corresponding to the symptoms, in humans, announcing the development of the neurodegenerative and neurodevelopmental diseases, i.e., anxiety, fear, social disconnection, agressivity, compulsive reactions, hypermotility, stereotypic activity, pain, seizures and lethargy, appearing at various degrees according to the amplitude of the Glutamate/GABA imbalance and to the brain regions (Basal Ganglia, Hippocampus, Cortex) affected by the above imbalance. Indeed, all the above behavioral effects (obtained, in mice, by administration of the GABAergic antagonist Pentylenetetrazole (PTZ) at 10 to 70 mg/kg, (ip): with 10 to 40 mg/kg (ip) giving fear, anxiety, social disconnection, and agressivity, hypermotility and stereotypic activity—the latter being better expressed by previous (reserpine induced) hypersensibilisation of the brain DA receptors—and seizures (obtained at 50 to 70 mg/kg (ip) of PTZ), were antagonized by GS, GP, GL, and PG at 50 to 200 mg/kg (ip).

[2] = tested on: GABA receptors; experiment: Affinity for the GABA receptors; assay type: binding
[3] = Lipophilicity; assay type: physicochemical; details: more specifically for GS, GP and GL
[4] = tested on: Rats; experiment: Animal models in Rats (haloperidol or reserpine catalepsy, reserpine palpebral ptosis, apomorphine and haloperidol stereotypies); assay type: in vivo; details: inferred from catalepsy, ptosis and stereotypy models

Row | SMILES | behavioral effects obtained by PTZ (fear, anxiety, social disconnection, agressivity, hypermotility, stereotypic activity, seizures) [1] | affinities for the GABA receptors [2] | lipophilicities [3] | preferential brain region of action [4]
1 | CCCCC/C=C\C/C=C\CCCCCCCC(=O)NCCCC(=O)O [GL, GABAlinoleamide] | antagonized | low affinities | high lipophilicities | preferentially acting in the striatum
2 | CCCCCCCCCCCCCCCC(=O)NCCCC(=O)O [GP, GABApalmitamide] | antagonized | low affinities | high lipophilicities | preferentially acting in the striatum
3 | CCCCCCCCCCCCCCCCCC(=O)NCCCC(=O)O [GS, GABAstearamide] | antagonized | low affinities | high lipophilicities | preferentially acting in substantia nigra
4 | NC(=O)CCC/N=C(\c1ccc(Cl)cc1)c1cc(F)ccc1O [PG, reference compound] | antagonized | low affinities | high lipophilicities | preferentially acting in substantia nigra
